Structures can show the parent of a compound that is named as a salt.
Each molecule was assayed against T1, human recombinant HPK1 (Homo sapiens, UniProt Q92918) (assay: Inhibitory activity against human recombinant HPK1 (TR-FRET)). Conditions: ULight-p70S6K peptide, ATP at Km, room temperature, 1 hour, 0.32 to 1000 nM compound.
T1 construct: purchased BPS Bioscience
Type: biochemical
Procedure: Test Example: Evaluation of Inhibitory Activity Against Human Recombinant HPK1
The inhibitory activity against human recombinant HPK1 was evaluated using the Time-Resolved Fluorescence Resonance Energy Transfer (TR-FRET) technology of Perkin-Elmer. The test compound was prepared as a 20 mM stock solution with dimethyl sulfoxide (DMSO), serially diluted in a buffer solution, and used at final compound concentrations of 0.32 to 1000 nM. The evaluation of inhibitory activity was carried out at room temperature, using recombinant human HPK1 (BPS Bioscience). Briefly, recombinant human HPK1, serially diluted each test compound, ULight-p70S6K peptide substrate (PerkinElmer), and ATP at each concentration (Km and final concentration) were added to a kinase buffer solution (50 mM HEPES pH 7.4, 10 mM MgCl2, 1 mM EGTA, 3 mM MnCl2, 2 mM DTT, and 0.01% Tween-20). The resulting mixture was added to each well of a 384-well plate (Optiplate™ 384, white, PerkinElmer). The enzyme reaction was carried out at room temperature for 1 hour. After the reaction was suspended by adding 4 μL of a stop solution (10 mM EDTA) thereto, the mixture was stirred for 1 minute and then a detection solution containing Europium-labeled anti-phosphopeptide antibody (final concentration: 2 nM, PerkinElmer) was added thereto. The signals of TR-FRET at excitation wavelength (320 nm) and emission wavelength (665 nm) were detected using a microplate reader (Envision Multilabel Reader, Perkin-Elmer). Inhibition by the test compound was measured as % inhibition in the signals, compared to the control group treated with DMSO only. The IC50 value of each compound was calculated using the GraphPad Prism program (GraphPad Software, Inc., San Diego, CA, USA). The IC50 values of test compounds for inhibitory activity against HPK1 were classified as follows: • A: IC50≤10 nM • B: 10 nM<IC50≤50 nM • C: 50 nM<IC50≤100 nM • D: IC50>100 nM

T1 sequence (Q92918 whole entry): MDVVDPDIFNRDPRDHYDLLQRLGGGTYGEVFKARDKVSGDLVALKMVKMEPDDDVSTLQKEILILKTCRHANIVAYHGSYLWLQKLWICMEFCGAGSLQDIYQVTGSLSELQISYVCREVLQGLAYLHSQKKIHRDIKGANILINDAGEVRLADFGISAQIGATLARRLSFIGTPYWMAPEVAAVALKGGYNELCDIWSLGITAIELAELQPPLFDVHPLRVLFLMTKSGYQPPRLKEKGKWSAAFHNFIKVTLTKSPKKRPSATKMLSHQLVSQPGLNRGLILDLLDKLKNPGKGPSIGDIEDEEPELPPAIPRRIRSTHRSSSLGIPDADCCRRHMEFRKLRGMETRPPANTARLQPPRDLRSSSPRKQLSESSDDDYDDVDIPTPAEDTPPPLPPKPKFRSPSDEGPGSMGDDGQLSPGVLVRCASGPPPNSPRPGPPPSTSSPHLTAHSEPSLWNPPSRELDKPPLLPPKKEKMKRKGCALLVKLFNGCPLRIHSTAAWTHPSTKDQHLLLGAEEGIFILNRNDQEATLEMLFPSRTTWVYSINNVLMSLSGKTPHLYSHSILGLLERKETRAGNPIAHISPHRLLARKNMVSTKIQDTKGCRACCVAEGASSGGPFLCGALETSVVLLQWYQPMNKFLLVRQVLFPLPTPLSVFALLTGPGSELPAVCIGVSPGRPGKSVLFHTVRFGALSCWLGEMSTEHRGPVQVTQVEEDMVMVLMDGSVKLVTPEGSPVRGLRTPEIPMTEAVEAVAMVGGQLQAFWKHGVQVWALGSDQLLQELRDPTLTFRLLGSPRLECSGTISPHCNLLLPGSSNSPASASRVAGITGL

Row | Molecule | IC50
1 | COc1cccc(F)c1-c1nccc(Nc2cc(N3CCC[C@H](O)C3)c(-c3ccc(C4CCOCC4)cc3)cn2)n1 [Example 18, (S)-1-(2-((2-(2-fluoro-6-methoxyphenyl)pyrimidin-4-yl)amino)-5-(4-(tetrahydro-2H-pyran-4-yl)phenyl)pyridin-4-yl)piperidin-3-ol] | ≤ 0.01 µM
2 | COc1cccc(F)c1-c1nccc(Nc2cc(N3CCC[C@H](O)C3)c(-c3ccc(C(=O)N4CCOCC4)nc3)cn2)n1 [Example 37, (S)-(6′-((2-(2-fluoro-6-methoxyphenyl)pyrimidin-4-yl)amino)-4′-(3-hydroxypiperidin-1-yl)-[3,3′-bipyridin]-6-yl)(morpholino)methanone] | 0.01 to 0.05 µM
3 | COc1cccc(F)c1-c1nccc(Nc2cc(N3CCC[C@H](O)C3)c(-c3cnn(C(F)F)c3)cn2)n1 [Example 72, (S)-1-(5-(1-(difluoromethyl)-1H-pyrazol-4-yl)-2-((2-(2-fluoro-6-methoxyphenyl)pyrimidin-4-yl)amino)pyridin-4-yl)piperidin-3-ol] | ≤ 0.01 µM
4 | 2-(2-fluoro-6-methoxyphenyl)-N-(4-(2-methyl-2,8-diazaspiro[4.5]decan-8-yl)-5-(1-(2,2,2-trifluoroethyl)-1H-pyrazol-4-yl)pyridin-2-yl)pyrimidin-4-amine [Example 136] | ≤ 0.01 µM
5 | O[C@H]1CCCN(c2cc(Nc3ccnc(-c4cc5nccnc5cc4F)n3)ncc2-c2cnn(C3CCOCC3)c2)C1 [Example 69, (S)-1-(2-((2-(7-fluoroquinoxalin-6-yl)pyrimidin-4-yl)amino)-5-(1-(tetrahydro-2H-pyran-4-yl)-1H-pyrazol-4-yl)pyridin-4-yl)piperidin-3-ol] | ≤ 0.01 µM
6 | COc1cccc(F)c1-c1nccc(Nc2cc(N3CCC[C@H](O)C3)c(C(=O)C3CC3)cn2)n1 [Example 5, (S)-cyclopropyl(6-((2-(2-fluoro-6-methoxyphenyl)pyrimidin-4-yl)amino)-4-(3-hydroxypiperidin-1-yl)pyridin-3-yl)methanone] | 0.01 to 0.05 µM
7 | O[C@H]1CCCN(c2cc(Nc3ccnc(-c4ccn5ncnc5c4)n3)ncc2-c2cnn(C3CCOCC3)c2)C1 [Example 26, (S)-1-(2-((2-([1,2,4]triazolo[1,5-a]pyridin-7-yl)pyrimidin-4-yl)amino)-5-(1-(tetrahydro-2H-pyran-4-yl)-1H-pyrazol-4-yl)pyridin-4-yl)piperidin-3-ol] | 0.05 to 0.1 µM
8 | COc1cccc(F)c1-c1nccc(Nc2cc(N3CC[C@H](CO)[C@@H](O)C3)c(-c3cnn(C4CCOCC4)c3)cn2)n1 [Example 95, (3R,4R)-1-(2-((2-(2-fluoro-6-methoxyphenyl)pyrimidin-4-yl)amino)-5-(1-(tetrahydro-2H-pyran-4-yl)-1H-pyrazol-4-yl)pyridin-4-yl)-4-(hydroxymethyl)piperidin-3-ol] | ≤ 0.01 µM
9 | COc1cccc(F)c1-c1nccc(Nc2cc(N3CCC[C@H](O)C3)c(-c3ccc(CN4CCC(O)CC4)nc3)cn2)n1 [Example 33, (S)-1-(6-((2-(2-fluoro-6-methoxyphenyl)pyrimidin-4-yl)amino)-6′-((4-hydroxypiperidin-1-yl)methyl)-[3,3′-bipyridin]-4-yl)piperidin-3-ol] | 0.01 to 0.05 µM
10 | Cc1cncc(-c2nccc(Nc3cc(N4CCC[C@H](O)C4)c(C(=O)C4CC4)cn3)n2)c1 [Example 1, (S)-cyclopropyl(4-(3-hydroxypiperidin-1-yl)-6-((2-(5-methylpyridin-3-yl)pyrimidin-4-yl)amino)pyridin-3-yl)methanone] | 0.01 to 0.05 µM

The remaining lines, values ahead:

Row | IC50 | Molecule
11 | ≤ 0.01 µM | COc1cccc(F)c1-c1nccc(Nc2cc(N3CCC[C@H](N)C3)c(-c3cnn([C@@H]4CCNC4)c3)cn2)n1 [Example 238, N-(4-((S)-3-aminopiperidin-1-yl)-5-(1-((R)-pyrrolidin-3-yl)-1H-pyrazol-4-yl)pyridin-2-yl)-2-(2-fluoro-6-methoxyphenyl)pyrimidin-4-amine hydrochloride]
12 | ≤ 0.01 µM | COc1cccc(F)c1-c1nc(Nc2cc(N3CCC[C@H](O)C3)c(C#Cc3cnn(CC(F)F)c3)cn2)ccc1[N+](=O)[O-] [Example 221, (3S)-1-(5-((1-(2,2-difluoroethyl)-1H-pyrazol-4-yl)ethynyl)-2-((6-(2-fluoro-6-methoxyphenyl)-5-nitropyridin-2-yl)amino)pyridin-4-yl)piperidin-3-ol]
13 | ≤ 0.01 µM | COc1cccc(F)c1-c1nccc(Nc2cc(N3CCC[C@H](N)C3)c(-c3ccc4c(c3)NC(=O)C(C)O4)cn2)n1 (stereo partly drawn) [Example 270, 6-(4-((S)-3-aminopiperidin-1-yl)-6-((2-(2-fluoro-6-methoxyphenyl)pyrimidin-4-yl)amino)pyridin-3-yl)-2-methyl-2H-benzo[b][1,4]oxazin-3(4H)-one hydrochloride]
14 | ≤ 0.01 µM | COc1cccc(F)c1-c1nc(Nc2cc(N3CCC[C@H](N)C3)c(-c3cnn(CC(F)(F)F)c3)cn2)ccc1N [Example 170, N^2-(4-((S)-3-aminopiperidin-1-yl)-5-(1-(2,2,2-trifluoroethyl)-1H-pyrazol-4-yl)pyridin-2-yl)-6-(2-fluoro-6-methoxyphenyl)pyridin-2,5-diamine hydrochloride]
15 | ≤ 0.01 µM | COc1cccc(F)c1-c1nccc(Nc2cc(N3CCC[C@H](N)C3)c(-c3ccc(F)c(C)c3)cn2)n1 [Example 282, (S)-N-(4-(3-aminopiperidin-1-yl)-5-(4-fluoro-3-methylphenyl)pyridin-2-yl)-2-(2-fluoro-6-methoxyphenyl)pyrimidin-4-amine hydrochloride]
16 | ≤ 0.01 µM | COc1cc(F)cc(F)c1-c1nccc(Nc2cc(N3CCC[C@H](N)C3)c(-c3cnn(C(F)(F)F)c3)cn2)n1 [Example 157, (S)-N-(4-(3-aminopiperidin-1-yl)-5-(1-(trifluoromethyl)-1H-pyrazol-4-yl)pyridin-2-yl)-2-(2,4-difluoro-6-methoxyphenyl)pyrimidin-4-amine hydrochloride]
17 | ≤ 0.01 µM | COc1cc(F)cc(F)c1-c1nccc(Nc2cc(N3CCC[C@H](N)C3)c(C#CC3CCOCC3)cn2)n1 [Example 110, (S)-N-(4-(3-aminopiperidin-1-yl)-5-((tetrahydro-2H-pyran-4-yl)ethynyl)pyridin-2-yl)-2-(2,4-difluoro-6-methoxyphenyl)pyrimidin-4-amine]
18 | ≤ 0.01 µM | COc1cccc(F)c1-c1nc(Nc2cc(N3CC[C@@H](F)[C@H](N)C3)c(-c3cnn(C(F)F)c3)cn2)ccc1F [Example 341, 4-((3R,4R)-3-amino-4-fluoropiperidin-1-yl)-5-(1-(difluoromethyl)-1H-pyrazol-4-yl)-N-(5-fluoro-6-(2-fluoro-6-methoxyphenyl)pyridin-2-yl)pyridin-2-amine hydrochloride]
19 | ≤ 0.01 µM | COc1cccc(F)c1-c1nccc(Nc2cc(N(C)C3CCC(O)CC3)c(-c3cnn(C(F)F)c3)cn2)n1 [Example 214, (1S,4S)-4-((5-(1-(difluoromethyl)-1H-pyrazol-4-yl)-2-((2-(2-fluoro-6-methoxyphenyl)pyrimidin-4-yl)amino)pyridin-4-yl)(methyl)amino)cyclohexan-1-ol]
20 | 0.01 to 0.05 µM | COc1cccc(F)c1-c1nc(Nc2cc(N3CCC[C@H](O)C3)c(-c3cnn(C4CCOCC4)c3)cn2)ccc1C(=O)N(C)C [Example 113, 2-(2-fluoro-6-methoxyphenyl)-6-((4-((S)-3-hydroxypiperidin-1-yl)-5-(1-(tetrahydro-2H-pyran-4-yl)-1H-pyrazol-4-yl)pyridin-2-yl)amino)-N,N-dimethylnicotinamide]
21 | > 0.1 µM | COc1cccc(F)c1-c1nccc(Nc2cc(N3CC[C@H](NC(C)=O)C3)c(-c3cnn(C4CCOCC4)c3)cn2)n1 [Example 128, (S)-N-(1-(2-((2-(2-fluoro-6-methoxyphenyl)pyrimidin-4-yl)amino)-5-(1-(tetrahydro-2H-pyran-4-yl)-1H-pyrazol-4-yl)pyridin-4-yl)pyrrolidin-3-yl)acetamide]
22 | ≤ 0.01 µM | COc1cc(F)cc(F)c1-c1nccc(Nc2cc(N3CCC[C@H](N)C3)c(-c3cnn(CC(F)(F)F)c3)cn2)n1 [Example 109, (S)-N-(4-(3-aminopiperidin-1-yl)-5-(1-(2,2,2-trifluoroethyl)-1H-pyrazol-4-yl)pyridin-2-yl)-2-(2,4-difluoro-6-methoxyphenyl)pyrimidin-4-amine]
23 | ≤ 0.01 µM | COc1cc(F)cc(F)c1-c1nc(Nc2cc(N3CCC[C@H](N)C3)c(-c3cnn(C4CCOCC4)c3)cn2)ccc1C#N [Example 309, 6-((4-((S)-3-aminopiperidin-1-yl)-5-(1-(tetrahydro-2H-pyran-4-yl)-1H-pyrazol-4-yl)pyridin-2-yl)amino)-2-(2,4-difluoro-6-methoxyphenyl)nicotinonitrile hydrochloride]
24 | ≤ 0.01 µM | CNC[C@@H]1CCCN(c2cc(Nc3ccnc(-c4c(F)cccc4OC)n3)ncc2-c2cnn(C(F)F)c2)C1 [Example 266, (S)-N-(5-(1-(difluoromethyl)-1H-pyrazol-4-yl)-4-(3-((methylamino)methyl)piperidin-1-yl)pyridin-2-yl)-2-(2-fluoro-6-methoxyphenyl)pyrimidin-4-amine hydrochloride]

From patent US20260347338A1, “PYRIMIDINE/PYRIDINE DERIVATIVES OR SALTS THEREOF AND PHARMACEUTICAL COMPOSITIONS COMPRISING THE SAME” (YUHAN CORPORATION, priority 2023, published 2026)
